This note sets out measurements from ChEMBL document CHEMBL3045448, “Enantioselective effects of optically active alpha-methylbenzyl-s-triazine on the root growth of rice and Echinochloa plants and their herbicidal activity” (Biosci Biotechnol Biochem, 2002).

SMILES strings stand for the structures. Calls of active or inactive are those of the source. The rule behind the calls is not given here.

Series [1] deals with Echinochloa oryzicola. The series can be described thus: Herbicidal activity against sprouting stage of Echinochloa oryzicola seedlings assessed as growth inhibition after 3 weeks by paddy pot test under green house conditions. The format is functional, organism-based.
Series [2] has as its system Echinochloa crus-galli var. formosensis. Briefly: Phytotoxicity in germinated seedlings of Echinochloa crus-galli var. formosensis (barnyard millet) assessed as root growth inhibition at 30 uM after 3 to 4 days. The format is organism-based. Conditions: in vivo.
For the next series, the system named is Oryza sativa. Briefly: Phytotoxicity in germinated seedlings of Oryza sativa (rice) assessed as root growth inhibition at 30 uM after 3 to 4 days. The format is organism-based. The following applies: in vivo.
The test system of series [3] is Echinochloa oryzicola. The series can be described thus: Herbicidal activity against Echinochloa oryzicola seedlings assessed as appearance of leaf burn symptom after 3 weeks by paddy pot test under green house conditions. The format is functional, organism-based.
Series [4] concerns Echinochloa oryzicola. The series can be described thus: Herbicidal activity against Echinochloa oryzicola seedlings measured per 10 acres after 3 weeks by paddy pot test under green house conditions. The format is functional.

As for `CCN(CC)c1nc(Cl)nc(NC(C)c2ccccc2)n1` (configuration not stated), the “growth inhibition (GI)” value in the series with Echinochloa oryzicola [1] was “Active”. As to `CCC(CC)Nc1nc(Cl)nc(N[C@H](C)c2ccccc2)n1`, the “growth inhibition (GI)” value (in series [2]; in the series with Oryza sativa) was “Toxic” in each case. `C[C@@H](Nc1nc(Cl)nc(NC(C)(C)C)n1)c1ccccc1`: the “growth inhibition (GI)” value in series [2] was “Toxic”. Take `CCNc1nc(Cl)nc(N[C@@H](C)c2ccccc2)n1`: the “growth inhibition (GI)” value in the series on Oryza sativa is “Toxic”. In addition, in the series on Echinochloa oryzicola [3], the outcome was Active. Take `CCCN(C)c1nc(Cl)nc(N[C@H](C)c2ccccc2)n1`: the “growth inhibition (GI)” value with Oryza sativa is given as “Toxic”. As to `CCN(CC)c1nc(Cl)nc(N[C@H](C)c2ccccc2)n1`, in the series on Echinochloa oryzicola [1], the “growth inhibition (GI)” value was “Active”. Further, in the series on Echinochloa oryzicola [4], the Activity is on record as 250 g. Regarding `CCNc1nc(Cl)nc(NC(C)c2ccccc2)n1` (configuration not stated), the outcome in the series on Echinochloa oryzicola [3] was Active. Further, the “growth inhibition (GI)” value with Echinochloa oryzicola [1] is “Active”. Regarding `CC[C@H](C)Nc1nc(Cl)nc(N[C@H](C)c2ccccc2)n1`, the “growth inhibition (GI)” value in the series on Oryza sativa is “Toxic”. Turning to `CCN(CC)c1nc(Cl)nc(N[C@@H](C)c2ccccc2)n1`, the “growth inhibition (GI)” value in the series on Echinochloa oryzicola [1] was “Active”. On to `CNc1nc(Cl)nc(N[C@@H](C)c2ccccc2)n1`, for which the “growth inhibition (GI)” value in the series with Oryza sativa is “Toxic”. Consider `CCCCNc1nc(Cl)nc(N[C@H](C)c2ccccc2)n1`, for which the “growth inhibition (GI)” value in the series on Oryza sativa is recorded as “Toxic”. Consider `CCNc1nc(Cl)nc(NC(C)C)n1`, for which the result in the series with Echinochloa oryzicola [3] was Active. Consider `CCCN(CC)c1nc(Cl)nc(N[C@H](C)c2ccccc2)n1`, for which, in series [2], the “growth inhibition (GI)” value is “Toxic”. Regarding `CCCNc1nc(Cl)nc(N[C@H](C)c2ccccc2)n1`, the “growth inhibition (GI)” value in the series on Oryza sativa is given as “Toxic”. As for `CCCN(CCC)c1nc(Cl)nc(N[C@H](C)c2ccccc2)n1`, the “growth inhibition (GI)” value (in series [2]; in the series with Oryza sativa) was “Toxic” throughout. As to `CCNc1nc(Cl)nc(N[C@H](C)c2ccccc2)n1`, the result in the series with Echinochloa oryzicola [3] was Active. The “growth inhibition (GI)” value with Echinochloa oryzicola [1] was “Active”.
